Source: ChEMBL document CHEMBL1129304, “11-Ketotigogenin cellobioside (pamaqueside): a potent cholesterol absorption inhibitor in the hamster” (J Med Chem, 1996)

Experiments:
Format in all cases: ADME, organism-based, Canis lupus familiaris
[1] = Pharmacokinetic parameter half-life was determined in fed Beagle dogs after iv administration of 1.5 mg/kg; parameters: dose 1.5 mg/kg, route intravenous; conditions: dog, in vivo
[2] = Pharmacokinetic parameter clearance was determined in fed Beagle dogs after iv administration of 1.5 mg/kg; parameters: dose 1.5 mg/kg, route intravenous; conditions: dog, in vivo
Canis familiaris = experiment: Pharmacokinetic parameter AUC has been determined in fed Beagle dogs at a dose of 500 mg/kg; parameters: dose 500 mg/kg; conditions: dog, in vivo
[3] = Bioavailability in fed Beagle dogs at a dose of 500 mg/kg; conditions: dog, in vivo
[4] = Pharmacokinetic parameter volume was determined in fed Beagle dogs after iv administration of 1.5 mg/kg; parameters: dose 1.5 mg/kg, route intravenous; conditions: dog, in vivo, read-out: Volume
[5] = Pharmacokinetic parameter Cmax has been determined in fed Beagle dogs at a dose of 500 mg/kg; parameters: dose 500 mg/kg; conditions: dog, in vivo

**Q.** What does the source list for `C[C@@H]1CC[C@@]2(OC1)O[C@H]1C[C@H]3[C@@H]4CC[C@H]5C[C@@H](O[C@@H]6O[C@H](CO)[C@@H](O[C@@H]7O[C@H](CO)[C@@H](O)[C@H](O)[C@H]7O)[C@H](O)[C@H]6O)CC[C@]5(C)[C@H]4C(=O)C[C@]3(C)[C@H]1[C@@H]2C` [PAMAQUESIDE]?
**A.** half-life [1]: 4.5 h; clearance [2]: 1.4 mL/min/kg; AUC (Canis familiaris): 2150 ng·h/mL; bioavailability [3]: 0.04%; Vd [4]: 0.5 L/kg; Cmax [5]: 110 ng/mL
